Results taken from patent publication US10669272B2, “Substituted naphthyridinone compounds useful as T cell activators” (BRISTOL-MYERS SQUIBB COMPANY, priority 2018, dated 2020).
Like-named read-outs stand apart in the source and are kept apart here.

Assays:
[1] = test system: Human venous whole blood; experiment: Human whole blood IFN-γ assay; type: cell-based; conditions: human whole blood, normalized to 3 μM reference compound with anti-CD3 plus anti-CD28 as 100% activation, read-out: INFg Whole Blood Normalized Agonist EC50;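 further: blood from healthy donors exposed to compound for 1 h before stimulation with anti-CD3 and anti-CD28 at 1 µg/mL each, IFN-γ quantified in supernatant by AlphaLISA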
Experimental: Human Whole Blood IFN-γ Assay
Human venous whole blood (22.5 μL per well), obtained from healthy donors, was pre-treated with compounds for one hour at 37° C. in a humidified 95% air/5% CO2 incubator. The blood was stimulated with 2.5 μL anti-human CD3 and anti-CD28 mAb at a final concentration of 1 μg/mL each for 24 hours at 37° C. IFN-γ in the supernatants was measured using AlphLISA kit (Cat # AL217).

[2] = test system: naïve human CD8 T cells; experiment: Human CD8 T cells IFN-γ assay; type: cell-based; conditions: normalized to 3 μM reference compound with anti-CD3 plus anti-CD28 as 100% activation, read-out: HuCD8 INFG Normalized EC50;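 further: Naïve human CD8 T cells stimulated with plate-bound anti-CD3 and soluble anti-CD28, IFN-γ in supernatant quantified by AlphaLISA and converted to pg/mL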
[3] = target: T1, human DGKζ (Homo sapiens, UniProt Q13574); experiment: DGKζ LIPGLO assay (extruded liposome substrate), in vitro DGK inhibition; type: biochemical; conditions: liposome (LIPGLO) assay; read-out: DGKz LIPGLO IC50
T1 construct: TVMV protease cleavage site (C); Hexa-His (C); made in house; host or cells: Sf9 insect cells (baculovirus, Bac-to-Bac)

[4] = target: T2, human DGKα (Homo sapiens, UniProt P23743); experiment: DGKα LIPGLO assay (extruded liposome substrate), in vitro DGK inhibition; type: biochemical; conditions: liposome (LIPGLO) assay; read-out: DGKa LIPGLO IC50
T2 construct: TVMV protease cleavage site (C); Hexa-His (C); made in house; host or cells: Sf9 insect cells (baculovirus, Bac-to-Bac)

[5] = test system: OT-1 CD8+ T cells with SIINFEKL-loaded MC38 tumor cells; experiment: Murine cytotoxic T lymphocyte assay (IFN-γ, OT-1 CTL with MC38 tumor cells); type: cell-based, mouse; conditions: read-out: msCTL INFg IC50
Method in brief: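 OT-1 CD8+ T cells, expanded 5 days with OVA peptide (1 μg/mL) and mIL2, pretreated 1 h with DGK inhibitors, then co-cultured overnight at 37° C at 1:10 with MC38 cells pulsed 3 h with 1 μg/mL SIINFEKL. IFN-γ in 24 h supernatant by AlphaLISA.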

T2 sequence (P23743 with tags, fused parts or gaps): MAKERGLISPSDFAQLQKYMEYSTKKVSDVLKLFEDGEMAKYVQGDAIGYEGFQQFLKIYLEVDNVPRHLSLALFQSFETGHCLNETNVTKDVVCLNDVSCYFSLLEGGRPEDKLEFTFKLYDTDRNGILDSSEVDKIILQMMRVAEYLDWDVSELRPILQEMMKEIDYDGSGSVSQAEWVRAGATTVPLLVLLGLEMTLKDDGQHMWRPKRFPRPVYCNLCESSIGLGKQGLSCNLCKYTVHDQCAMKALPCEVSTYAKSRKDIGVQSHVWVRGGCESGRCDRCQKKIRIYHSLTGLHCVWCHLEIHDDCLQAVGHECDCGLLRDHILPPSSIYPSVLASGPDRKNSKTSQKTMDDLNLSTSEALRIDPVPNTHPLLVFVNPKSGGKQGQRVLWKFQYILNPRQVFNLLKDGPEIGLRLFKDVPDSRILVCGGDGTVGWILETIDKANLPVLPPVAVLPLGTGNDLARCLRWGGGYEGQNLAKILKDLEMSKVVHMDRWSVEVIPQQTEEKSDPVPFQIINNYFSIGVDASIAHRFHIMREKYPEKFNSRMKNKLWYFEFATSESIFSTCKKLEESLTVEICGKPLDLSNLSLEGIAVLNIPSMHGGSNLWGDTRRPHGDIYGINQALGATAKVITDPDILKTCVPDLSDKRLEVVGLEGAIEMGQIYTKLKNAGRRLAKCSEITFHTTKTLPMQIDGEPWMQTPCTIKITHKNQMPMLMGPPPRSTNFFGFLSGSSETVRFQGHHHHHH
T1 sequence (Q13574 with tags, fused parts or gaps isoform Q13574-4): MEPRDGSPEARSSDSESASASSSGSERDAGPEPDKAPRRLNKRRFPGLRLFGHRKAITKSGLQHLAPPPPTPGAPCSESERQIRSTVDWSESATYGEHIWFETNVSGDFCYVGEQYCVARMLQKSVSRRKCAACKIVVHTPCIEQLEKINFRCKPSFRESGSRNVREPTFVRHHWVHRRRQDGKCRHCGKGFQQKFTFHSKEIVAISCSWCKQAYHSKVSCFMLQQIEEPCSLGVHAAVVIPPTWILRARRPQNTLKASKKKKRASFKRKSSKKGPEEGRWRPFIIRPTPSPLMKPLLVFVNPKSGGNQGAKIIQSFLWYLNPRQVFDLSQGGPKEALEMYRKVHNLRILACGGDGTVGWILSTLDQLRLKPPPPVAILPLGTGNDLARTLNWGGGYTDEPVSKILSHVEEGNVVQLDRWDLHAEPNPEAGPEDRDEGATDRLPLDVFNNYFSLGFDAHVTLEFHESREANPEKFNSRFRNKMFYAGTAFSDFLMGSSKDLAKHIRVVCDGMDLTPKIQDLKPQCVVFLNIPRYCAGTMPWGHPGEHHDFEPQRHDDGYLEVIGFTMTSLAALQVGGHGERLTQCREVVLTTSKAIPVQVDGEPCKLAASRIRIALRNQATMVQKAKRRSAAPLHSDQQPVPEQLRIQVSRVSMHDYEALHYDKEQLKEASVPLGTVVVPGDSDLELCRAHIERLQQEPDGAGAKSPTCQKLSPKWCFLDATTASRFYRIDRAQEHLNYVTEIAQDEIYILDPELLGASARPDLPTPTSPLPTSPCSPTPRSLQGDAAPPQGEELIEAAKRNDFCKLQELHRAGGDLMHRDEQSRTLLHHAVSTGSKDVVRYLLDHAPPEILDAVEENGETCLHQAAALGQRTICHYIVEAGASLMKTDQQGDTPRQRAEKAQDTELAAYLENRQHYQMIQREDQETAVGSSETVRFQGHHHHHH

SMILES	EC50 ([1]; Homo sapiens, 24 h)	EC50 ([2]; Homo sapiens, T-cell, 20 h)	IC50 [3]	IC50 [4]	IC50 [5]	EC50 [1]	EC50 [2]	IC50 ([5]; Mus musculus, MC-38)	EC50 ([1]; Homo sapiens)
COC(=O)C1CN(C(c2ccc(F)cc2)c2ccc(F)cc2)CCN1c1c(C#N)c(=O)n(C)c2ccc(C#N)nc12 (single isomer, unassigned) [Example 116, Methyl 4-(bis(4-fluorophenyl)methyl)-1-(3,6-dicyano-1-methyl-2-oxo-1,2-dihydro-1,5-naphthyridin-4-yl)piperazine-2-carboxylate]	3300 nM	160 nM	3600 nM	9500 nM	560 nM				
COC(=O)C1CN(C(c2ccc(F)cc2)c2ccc(F)cc2)CCN1c1c(C#N)c(=O)n(C)c2ccc(C#N)nc12 (single isomer, unassigned) [Example 117, Methyl 4-(bis(4-fluorophenyl)methyl)-1-(3,6-dicyano-1-methyl-2-oxo-1,2-dihydro-1,5-naphthyridin-4-yl)piperazine-2-carboxylate]			7200 nM	350 nM	270 nM	2500 nM	280 nM		
COc1cc(F)ccc1C(c1ccc(F)cc1)N1C[C@H](C)N(c2cc(=O)n(C)c3ccc(C#N)nc23)C[C@H]1C (single isomer, unassigned) [Example 119]			1700 nM	29000 nM	6300 nM	5100 nM	610 nM		
C[C@@H]1CN(c2cc(=O)n(C)c3ccc(C#N)nc23)[C@@H](C)CN1C(c1ccc(F)cc1)c1ccccn1 (single isomer, unassigned) [Example 197]	1100 nM	35 nM	3700 nM	200 nM				82 nM	
COc1ncccc1C(c1ccc(F)cc1)N1C[C@H](C)N(c2cc(=O)n(C)c3ccc(C#N)nc23)C[C@H]1C (single isomer, unassigned) [Example 210]			260 nM	14000 nM		1100 nM	130 nM	120 nM	
Cc1ccc(C(c2ccc(Cl)cc2)N2C[C@H](C)N(c3cc(=O)n(C)c4ccc(C#N)nc34)C[C@H]2C)cc1 (single isomer, unassigned) [Example 247]	390 nM	120 nM	210 nM	370 nM				110 nM	
Cc1ccc(C(c2ccc(Cl)cc2)N2C[C@H](C)N(c3cc(=O)n(C)c4ccc(C#N)nc34)C[C@H]2C)cc1 (single isomer, unassigned) [Example 250]			630 nM	600 nM	190 nM	710 nM	120 nM		
Cc1ccc(C(c2ccc(F)cc2)N2C[C@H](C)N(c3cc(=O)n(C)c4ccc(C#N)nc34)C[C@H]2C)cc1 (single isomer, unassigned) [Example 252]			440 nM	660 nM	22 nM	430 nM	160 nM		
C[C@@H]1CN(c2cc(=O)n(C)c3ccc(C#N)nc23)[C@@H](C)CN1C(c1ccc(F)cc1)c1ccc(Cl)cc1 (single isomer, unassigned) [Example 302]	570 nM		640 nM	170 nM	24 nM		23 nM		
C[C@@H]1CN(c2cc(=O)n(C)c3ccc(C#N)nc23)[C@@H](C)CN1C(c1ccc(F)cc1)c1ccc(Cl)cc1 (single isomer, unassigned) [Example 303]			690 nM	500 nM	57 nM	650 nM	160 nM		
C[C@@H]1CN(c2cc(=O)n(C)c3ccc(C#N)nc23)[C@@H](C)CN1C(c1ccc(F)cc1)c1ccc(C#N)cc1 (single isomer, unassigned) [Example 306]	530 nM	54 nM	1300 nM	470 nM				53 nM	
C[C@@H]1CN(c2cc(=O)n(C)c3ccc(C#N)nc23)[C@@H](C)CN1C(c1ccc(F)cc1)c1ccc(C#N)cc1 (single isomer, unassigned) [Example 307]			1000 nM	470 nM	31 nM	330 nM	30 nM		
CC(c1ccc(F)cc1)N1C[C@H](C)N(c2cc(=O)n(C)c3ccc(C#N)nc23)C[C@H]1C (single isomer, unassigned) [Example 308]	520 nM		160 nM	25 nM			290 nM	81 nM	
COc1cc(F)ccc1C(c1ccc(F)cc1)N1C[C@@H](C)N(c2c([N+](=O)[O-])c(=O)n(C)c3ccc(C#N)nc23)C[C@@H]1C (stereo in doubt) [Example 120, 8-((2R,5S)-4-((4-fluoro-2-methoxyphenyl)(4-fluorophenyl)methyl)-2,5-dimethylpiperazin-1-yl)-5-methyl-7-nitro-6-oxo-5,6-dihydro-1,5-naphthyridine-2-carbonitrile]	20000 nM	1000 nM	240000 nM	110000 nM				4700 nM	
Cn1c(=O)cc(N2CCN(C(c3ccc(F)cc3)c3ccc(F)cc3)C(CF)C2)c2nc(C#N)ccc21 (centres unmarked) [Example 8, 8-(4-(bis(4-fluorophenyl)methyl)-3-(fluoromethyl)piperazin-1-yl)-5-methyl-6-oxo-5,6-dihydro-1,5-naphthyridine-2-carbonitrile]	14000 nM	230 nM	5000 nM	17000 nM				1000 nM	
C[C@@H]1CN(c2c(Cl)c(=O)n(C)c3ccc(C#N)nc23)[C@@H](C)CN1C(c1ccc(F)cc1)c1ccc(F)cc1 [Example 18, 8-((2S,5R)-4-(bis(4-fluorophenyl)methyl)-2,5-dimethylpiperazin-1-yl)-7-chloro-5-methyl-6-oxo-5,6-dihydro-1,5-naphthyridine-2-carbonitrile]	20000 nM	250 nM	12000 nM	800 nM				10000 nM	
C[C@@H]1CN(c2c(Br)c(=O)n(C)c3ccc(C#N)nc23)[C@@H](C)CN1C(c1ccc(F)cc1)c1ccc(F)cc1 [Example 19, 8-((2S,5R)-4-(bis(4-fluorophenyl)methyl)-2,5-dimethylpiperazin-1-yl)-7-bromo-5-methyl-6-oxo-5,6-dihydro-1,5-naphthyridine-2-carbonitrile]	20000 nM	10000 nM	240000 nM	42000 nM				8700 nM	
C[C@@H]1CN(c2c(C3CC3)c(=O)n(C)c3ccc(C#N)nc23)[C@@H](C)CN1C(c1ccc(F)cc1)c1ccc(F)cc1 [Example 20, 8-((2S,5R)-4-(bis(4-fluorophenyl)methyl)-2,5-dimethylpiperazin-1-yl)-7-cyclopropyl-5-methyl-6-oxo-5,6-dihydro-1,5-naphthyridine-2-carbonitrile]	20000 nM	10000 nM	130000 nM	95000 nM				10000 nM	
Cc1c(N2C[C@@H](C)N(C(c3ccc(F)cc3)c3ccc(F)cc3)C[C@@H]2C)c2nc(C#N)ccc2n(C)c1=O [Example 22, 8-((2S,5R)-4-(bis(4-fluorophenyl)methyl)-2,5-dimethylpiperazin-1-yl)-5,7-dimethyl-6-oxo-5,6-dihydro-1,5-naphthyridine-2-carbonitrile]	20000 nM	10000 nM	37000 nM	44000 nM				10000 nM	
C[C@@H]1CN(c2cc(=O)n(C)c3ccc(C#N)nc23)[C@@H](C)CN1C(c1ccc(Cl)cc1)c1ccc(Cl)cc1 [Example 25, 8-((2S,5R)-4-(bis(4-chlorophenyl)methyl)-2,5-dimethylpiperazin-1-yl)-5-methyl-6-oxo-5,6-dihydro-1,5-naphthyridine-2-carbonitrile]	390 nM	4.3 nM	250 nM	650 nM				41 nM	
C[C@@H]1CN(c2c(Cl)c(=O)n(C)c3ccc(C#N)nc23)[C@@H](C)CN1C(c1ccc(Cl)cc1)c1ccc(Cl)cc1 [Example 26, 8-((2S,5R)-4-(bis(4-chlorophenyl)methyl)-2,5-dimethylpiperazin-1-yl)-7-chloro-5-methyl-6-oxo-5,6-dihydro-1,5-naphthyridine-2-carbonitrile]	20000 nM	2300 nM	3000 nM	24000 nM				10000 nM	
COC(=O)C1CN(c2cc(=O)n(C)c3ccc(C#N)nc23)CCN1C(c1ccc(F)cc1)c1ccc(F)cc1 (centres unmarked) [Example 27, Methyl 1-(bis(4-fluorophenyl)methyl)-4-(6-cyano-1-methyl-2-oxo-1,2-dihydro-1,5-naphthyridin-4-yl)piperazine-2-carboxylate]		62 nM	1700 nM	240000 nM				64 nM	520 nM
